Literature values as cited in patent US11324751B1 (Janssen Pharmaceutica NV, priority 2020, dated 2022).

CCCCCCCCCCCCCCCC(=O)OC1CCCn2c1nc(C)c(CCN1CCC(c3noc4cc(F)ccc34)CC1)c2=O (racemic) [paliperidone palmitate, (=)-3-[2-[4-(6-fluoro-1,2-benzisoxazol-3-yl)-1-piperidinyl]ethyl]-6,7,8,9-tetrahydro-2-methyl-4-oxo-4H-pyrido[1,2-c]pyrimidin-9-yl hexadecanoate]
water solubility: extreme low water solubility
